Source: patent US6960559B1, “Neurite growth regulatory factors” (University of Zurich, priority 1988, dated 2005)
Where two headings read alike, the source gives them in different places. Where a SMILES comes first, the peptide text is derived from it. [ ]: non-standard residue; d: D form. The star is where a group is joined. Sta = CC(C)C[C@H](N)[C@@H](O)CC(=O)O; Isovaleryl = CC(C)CC(=O)*; Cbz = O=C(OCc1ccccc1)*

Experiments:
[1] = tested on: C6 cells; assay: C6 cell spreading on CNS myelin or PLYS with protease inhibitors; assay type: cell-based, rat; conditions: for Inhibition on CNS (%): spreading on PLYS minus spreading on CNS myelin
Procedure: Rat C6, mouse NIH 3T3 and B16 cells were cultured in Dulbecco's modified Eagle's medium (DMEM) supplemented with 10% fetal calf serum (FCS), usually to maximally 70-80% confluency. Cells were harvested with a short trypsin treatment (0.1% in Ca^2+/Mg^2+-free Hank's medium for 90 seconds) stopped by addition of FCS in excess, collected by centrifugation. Cells were resuspended in either DMEM/FCS or defined serum-free medium (MEM) and used for experiments. Dissociated rat CNS glial cells were prepared starting from optic nerves of 6-7 days old Lewis rats as described in Section 6.1.1, supra and plated into poly-D-lysine (PLYS) coated wells (100 mm^2, 100 μl medium) at a density of 20,000 cells per well. The culture medium was an enriched L15 medium with 5% rat serum, penicillin and streptomycin. C6, 3T3 and B16 cells were added to 2 day old cultures at a concentration of 30,000 cells per well, incubated for two hours and fixed with warm 4% formalin in phosphate buffer. Inhibitory oligodendrocytes were identified by double labelling using the specific antibodies O1 and O4 (see Section 6.1.3, supra).
Myelin from rat spinal cord (CNS) or sciatic nerve (PNS) purified on a discontinuous sucrose gradient as described in Section 6.1.5., was dried overnight onto PLYS coated wells (20 μg protein/well of 100 mm^2 surface). Unbound membranes were removed by three washes with Ca^2+/Mg^2+-free Hank's solution. Myelin coated wells were immediately used in substrate testing assays by the addition of 9,000 cells (C6, 3T3, or B16) per cm^2. Alternatively, we used extracted CNS myelin protein, or SDS-PAGE purified 35 and 250 kD inhibitory proteins reconstituted in liposomes (see Section 7.1.5, supra). Experiments were scored at different time points using a phase contrast microscope equipped with a photocamera. Quantifications were done using a surface integration program; three arbitrary fields were photographed for each well at a magnitude of 80×, at least 25 cells per picture were measured. Each point represents the mean of at least 3 wells±SEM. Results are expressed as μ^2 of projected cell surface, or as degree, which was calculated by subtracting from the projected surface value of a spreading cell, the surface value of a completely spheric cell.

[2] = tested on: 3T3 cells; assay: Treatment of CNS myelin with C6 plasma membranes, 3T3 spreading and 3H-thymidine incorporation; assay type: cell-based, mouse; conditions: 3T3 spreading on CNS myelin pretreated with C6 plasma membranes
Procedure: C6 cells grown to 80% confluency were washed twice with Hank's medium, and harvested in 20 ml 8.5% sucrose, 50 mM NaCl, 10 mM Tris buffer, pH 7.4, using a rubber policeman. After mechanical homogenization through a series of needles of decreasing size, a low purity plasma membrane fraction was obtained by centrifugation (5 minutes at 3000×g, 10 minutes at 8000×g, and then 2 hours at 100,000×g). A higher purity fraction was isolated by loading the material on a discontinuous sucrose gradient, containing 50 mM NaCl, 10 mM Tris, pH 7.4 (Quigley, 1976, J. Cell Biol. 71: 472-486). 20-40% sucrose interphase (C6 plasma membranes fraction) and 40-60% sucrose interphase (C6 mitochondrial fraction) were collected, washed in Hank's medium and resuspended in MEM.
CNS myelin coated PLYS wells were prepared as described in the previous section, but instead of being immediately tested as substrate, they were first incubated with 50 μl of C6 plasma membranes (containing 0.8 mg protein/ml MEM) at 37° for 30 minutes. Dishes were then rinsed twice with Hank's medium and immediately used as substrates for 3T3 cells. In some experiments, protease blockers were added to the membranes using 10 times concentrated solutions.

[3] = tested on: C6 cells; assay: C6 cell attachment and spreading on rat cerebellar frozen sections; assay type: cell-based; conditions: 1,10-phenanthroline 50-300 μM; cbz-tyr-tyr 100 μM
Procedure: Adult rat cerebellum frozen sections were prepared and dried on glass coverslips. 70,000 C6, 3T3, or B16 cells in 100 μl were added to each well containing slices previously rinsed with cold DMEM/FCS. Cultures were incubated for 2 days at 37° C. Cultures were then fixed and stained with cresyl violet. Three to four cerebellum slices were used per point per experiment, with each experiment being repeated at least 2 times.

[4] = tested on: C6 glioblastoma cells; assay: cells; assay type: cell-based, rat; conditions: 2 h
Procedure: Rat C6 glioblastoma cells (Benda et al., 1968, Science 161:370-371) were cultured in Dulbecco's modified Eagle's medium (DMEM) supplemented with 10% fetal calf serum (FCS), usually to maximally 70-80% confluency (Paganetti et al., 1988, J. Cell Biol. 107:2281-2291). All cell culture media were routinely supplemented with penicillin and streptomycin. Cells were harvested by a short trypsin treatment (0.1% in Ca^2+/Mg^2+-free [CMF] PBS/EDTA solution for 90 seconds) followed by addition of DMEM/10% FCS and centrifugation (600×g, 6 min). The cell pellet was rinsed with 5 ml DMEM/10% FCS and centrifuged. For cell spreading assays, cells were resuspended at 10^6/ml in defined serum-free medium (MEMα) supplemented with 0.2 μg/ml insulin, 0.5 μg/ml transferrin and 0.12 μg/ml bovine serum albumin (BSA). Protease blockers or peptides were added directly to the cell suspension from 10×solutions 10 min before plating.
Spinal cord myelin from young adult Lewis rats was purified on a discontinuous sucrose gradient (Colman et al., 1982, J. Cell Biol. 95:598-608; Schwab and Caroni, 1988, J. Neurosci. 8:2381-2393) and stored in 100 mM sucrose, 25 mM TRIS/HCl pH 7.4 at −80° C. up to 6 months. The myelin suspension ([…]) was incubated for 30 min on poly-D-lysine-coated wells (PLYS-wells). Unbound myelin membranes were removed by rinsing twice with CMF-Hank's and once with MEMα. Myelin-coated wells were used immediately for the spreading assay by adding 9'000 C6 cells per cm^2. Experiments were scored as described (Paganetti et al., 1988, J. Cell Biol. 107:2281-2291).

[5] = tested on: C6 plasma membrane associated metalloendoprotease; assay: Enzyme assay: cbz-FAF[125I]Y-NH2 degradation by C6 plasma membranes with protease blockers; assay type: biochemical, rat
Procedure: For most experiments, 70-80% confluent cell layers (1 cm^2 wells, 100 μl MEMα) or 2-5 μg C6 plasma membrane (100 μl MEMα) were used. […] If indicated, cell layers or plasma membrane suspensions were preincubated for 30 min with protease blockers or peptides. NEM or iodacetamide incubations of plasma membranes were performed at pH 8.5. The incubation was stopped by loading a 10 μl aliquot of the incubation medium on a thin layer chromatography plate (10 cm height, Kieselgel 60 F254, MERCK, Germany) and air dried. […] Plates were then air dried and exposed on Kodak X-OMAT films (NY, USA) with an intensifying screen. To identify the degradation products on thin-layer chromatography, we run reference peptides under the same conditions.
For the quantification of the activity, the reaction was stopped by addition of an equal volume of chloroform. […] Activity is expressed as % radioactivity contained in the aqueous phase. 100% is the sum of the radioactivity of both phases.

[6] = tested on: C6 cells; assay: C6 cell infiltration into optic nerve explants; assay type: cell-based, rat; conditions: nerves injected with 3 mM peptide, 0.5 mM in medium; 14 days
Procedure: Optic nerve and sciatic nerve explants were prepared as described (Schwab and Thoenen, 1985, J. Neurosci. 5:2415-2423). Briefly, the nerves were rapidly dissected from about 8 week old male rats, cleaned from the meninges, 3 times frozen and thawed using liquid nitrogen, and placed under a teflon ring (diameter 13 mm, thickness 1 mm) sealed to a culture dish with silicon grease. Two chambers connected only by the explants were in this way obtained. 300,000 C6, 3T3 or B16 cells were plated in the inner chamber in DMEM/FCS and incubated for 5 to 20 days. The medium was changed every other day. Cultures were fixed overnight with 4% formalin. The nerve explants were mounted with Tissue-Tek, 10 to 15 μm sections were cut in a cryostate and collected on gelatine coated cover slips. After drying at room temperature overnight, the sections were stained in 0.75% cresyl violet, and evaluated. The infiltrated cells were counted for each 0.1 mm of the explants, starting from the tip where cells were added. Due to the 15 day incubation, the explants were often different in diameter. Therefore, only the central part of the nerves (0.25 mm) were considered, since only this part of the explants presented a good histological quality. Inhibition experiments were performed with nerve explants previously injected from both sides with 2 μl of 3 mM cbz-tyr-tyr or cbz-ala-phe solutions.

[7] = C6 cells, 1,10-phenanthroline 0.3 mM, antibody as labelled or none, 150 minutes

Effect on cbz-FAF[^125I]Y-NH2 degradation by C6 plasma membranes, in words [5] | SMILES | Inhibition on CNS (%) ([1]; C6 cells) | Effect on neutralization of CNS myelin inhibitory activity by C6 plasma membranes, in words [2] | C6 cells on white matter of cerebellar frozen sections, in words [3] | also measured
completely blocked the degradation | c1cnc2c(c1)ccc1cccnc12 [1,10-phenanthroline] | 67% | completely blocked the C6 plasma membrane effect | dramatically changed the distribution and behavior of C6 cells on the white matter areas | Effect on C6 cell spreading on control substrates (PLYS, glass, PNS myelin), in words ([1]; 1,10-phenanthroline up to 0.5 mM): did not impair C6 cell spreading; Concentration exerting a general toxic effect on all substrates ([1]; C6 cells, 3 hours): above 0.5 mM; % inhibition on CNS lipos. ([1]; C6 cells, 1,10-phenanthroline 0.3 mM, antibody as labelled or none): 46%; Spreading value on CNS lipos. [1, 7]: 1.35 μm^2 10^3; Spreading value on PLYS [1, 7]: 2.49 μm^2 10^3; IC50 ([1]; Rattus norvegicus, C6, Section 9, read-out: Half maximal inhibition (IC50) of C6 spreading on CNS myelin): 200 µM; Maximal inhibition of C6 cell spreading on CNS myelin ([1]; after 2 hours in culture): up to 67%; IC50 ([4]; Rattus norvegicus, C6 cell spreading on CNS myelin, read-out: IC50 on CNS myelin): 200 µM; IC50 ([4]; Rattus norvegicus, C6 cell spreading on PLYS, read-out: IC50 PLYS): 600 µM; IC50 [5]: 200 µM; Effect on cbz-FAF[^125I]Y-NH2 degradation by C6 plasma membranes, in words ([5]; listed as o-phenanthroline): blocked completely either activities
 | NC(=O)[C@H](Cc1ccccc1)NC(=O)CNC(=O)OCc1ccccc1 [cbz-gly-phe-NH2, carbobenzoxy-glycine-phenylalanine-amide] (Cbz-Gly-Phe-NH2) | 55% | completely blocked the C6 plasma membrane effect |  | 
 | O=C(N[C@@H](Cc1ccc(O)cc1)C(=O)N[C@@H](Cc1ccc(O)cc1)C(=O)O)OCc1ccccc1 [cbz-tyr-tyr, carbobenzoxy-tyrosine-tyrosine] (Cbz-Tyr-Tyr-OH) | 45% |  | dramatically changed the distribution and behavior of C6 cells on the white matter areas | Maximal inhibition of C6 cell spreading on CNS myelin ([1]; 2 h): up to 67%; C6 cell infiltration into optic nerve explants, in words [6]: inhibited C6 cell infiltration in all the 8 nerves examined; IC50 [4]: 300 µM
had no effect | CC(C)CC(=O)N[C@H](C(=O)N[C@H](C(=O)N[C@@H](CC(C)C)[C@@H](O)CC(=O)N[C@@H](C)C(=O)N[C@@H](CC(C)C)[C@@H](O)CC(=O)O)C(C)C)C(C)C [pepstatine] (Isovaleryl-VV[Sta]A[Sta]-OH) | 3% | did not inhibit this effect |  | 

SMILES | Effect on cbz-FAF[^125I]Y-NH2 degradation by C6 plasma membranes, in words [5] | Inhibition on CNS (%) ([1]; C6 cells) | Effect on neutralization of CNS myelin inhibitory activity by C6 plasma membranes, in words [2] | C6 cells on white matter of cerebellar frozen sections, in words [3] | also measured
CC(=O)N[C@@H](CC(C)C)C(=O)N[C@@H](CC(C)C)C(=O)N[C@H](C=O)CCCNC(=N)N [leupeptine] | had no effect | 8% | did not inhibit this effect |  | 
